Test results: paper PMC9905339 (Biochemistry, 2023)

Legend:
Rv0099 = Rv0099 (Mycobacterium tuberculosis, UniProt P9WQ55)
MmaA = MmaA (Mycobacterium marinum, UniProt B2HKL9)
MmaE = MmaE (Mycobacterium marinum, UniProt B2HKM3); assay: LC-HRMS of Py-AP after tetrazine click; type: biochemical; conditions: α-KG, Fe(II), 50 mM HEPES pH 8.0, room temperature
Chain of MmaE (B2HKM3 whole entry): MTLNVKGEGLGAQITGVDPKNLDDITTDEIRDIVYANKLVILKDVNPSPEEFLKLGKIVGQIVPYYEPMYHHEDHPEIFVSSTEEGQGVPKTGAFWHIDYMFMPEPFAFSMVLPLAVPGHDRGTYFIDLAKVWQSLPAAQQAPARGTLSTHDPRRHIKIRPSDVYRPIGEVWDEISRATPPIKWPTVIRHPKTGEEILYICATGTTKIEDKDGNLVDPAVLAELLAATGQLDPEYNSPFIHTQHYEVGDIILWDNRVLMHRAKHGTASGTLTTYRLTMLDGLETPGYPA

Chain of Rv0099 (P9WQ55 whole entry): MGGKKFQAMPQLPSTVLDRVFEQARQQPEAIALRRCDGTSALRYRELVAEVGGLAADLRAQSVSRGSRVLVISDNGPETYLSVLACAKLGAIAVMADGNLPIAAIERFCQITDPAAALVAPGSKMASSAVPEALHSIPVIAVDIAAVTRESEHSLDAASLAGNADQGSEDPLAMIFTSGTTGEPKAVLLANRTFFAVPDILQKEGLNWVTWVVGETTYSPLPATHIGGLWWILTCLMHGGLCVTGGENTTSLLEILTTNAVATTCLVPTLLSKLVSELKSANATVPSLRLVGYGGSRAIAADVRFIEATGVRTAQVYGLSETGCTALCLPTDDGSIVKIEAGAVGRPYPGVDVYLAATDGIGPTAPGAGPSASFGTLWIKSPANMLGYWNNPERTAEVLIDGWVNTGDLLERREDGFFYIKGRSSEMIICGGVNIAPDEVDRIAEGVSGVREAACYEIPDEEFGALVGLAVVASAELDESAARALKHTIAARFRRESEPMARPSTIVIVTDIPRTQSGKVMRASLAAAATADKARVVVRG
Chain of MmaA (B2HKL9 whole entry): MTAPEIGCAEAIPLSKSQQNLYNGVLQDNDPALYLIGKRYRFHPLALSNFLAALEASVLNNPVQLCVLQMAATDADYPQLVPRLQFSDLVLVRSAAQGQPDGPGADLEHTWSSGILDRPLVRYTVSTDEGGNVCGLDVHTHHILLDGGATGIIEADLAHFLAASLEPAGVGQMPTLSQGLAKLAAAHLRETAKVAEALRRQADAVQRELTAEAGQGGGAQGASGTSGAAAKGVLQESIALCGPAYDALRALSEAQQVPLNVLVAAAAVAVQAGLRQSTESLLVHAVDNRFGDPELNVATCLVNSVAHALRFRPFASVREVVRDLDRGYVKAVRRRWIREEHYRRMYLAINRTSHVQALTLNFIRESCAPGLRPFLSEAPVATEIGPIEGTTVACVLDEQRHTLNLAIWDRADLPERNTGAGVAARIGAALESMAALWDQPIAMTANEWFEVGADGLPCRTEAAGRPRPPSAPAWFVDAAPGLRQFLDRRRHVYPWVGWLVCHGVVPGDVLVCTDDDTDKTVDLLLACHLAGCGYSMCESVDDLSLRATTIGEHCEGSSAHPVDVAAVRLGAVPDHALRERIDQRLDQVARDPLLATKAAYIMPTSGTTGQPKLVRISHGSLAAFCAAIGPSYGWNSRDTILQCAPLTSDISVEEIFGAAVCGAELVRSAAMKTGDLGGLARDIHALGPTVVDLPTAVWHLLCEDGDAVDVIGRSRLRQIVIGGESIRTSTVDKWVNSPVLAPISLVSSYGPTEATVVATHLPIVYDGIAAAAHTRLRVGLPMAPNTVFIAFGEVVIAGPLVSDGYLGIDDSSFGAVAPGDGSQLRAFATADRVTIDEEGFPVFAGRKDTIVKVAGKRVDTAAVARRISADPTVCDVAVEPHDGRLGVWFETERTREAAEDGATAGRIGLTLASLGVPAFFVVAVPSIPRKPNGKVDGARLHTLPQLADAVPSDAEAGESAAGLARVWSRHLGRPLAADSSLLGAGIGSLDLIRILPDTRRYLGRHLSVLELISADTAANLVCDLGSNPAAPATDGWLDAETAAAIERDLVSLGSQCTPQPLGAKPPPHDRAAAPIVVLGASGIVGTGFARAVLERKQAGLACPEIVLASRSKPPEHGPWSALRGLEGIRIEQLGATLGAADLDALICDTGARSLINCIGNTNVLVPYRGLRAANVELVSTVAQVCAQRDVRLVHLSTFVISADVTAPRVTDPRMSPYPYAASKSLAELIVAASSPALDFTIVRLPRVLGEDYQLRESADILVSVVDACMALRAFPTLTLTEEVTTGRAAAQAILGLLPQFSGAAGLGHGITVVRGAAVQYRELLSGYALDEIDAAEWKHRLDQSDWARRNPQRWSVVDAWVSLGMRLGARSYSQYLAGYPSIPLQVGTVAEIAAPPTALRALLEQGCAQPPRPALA

SMILES	LC-HRMS intact protein and Ppant ejection; loading onto holo-Rv0100 (Rv0099)	also measured
[C-]#[N+]C(CCCCCCC)CC(=O)O (stereo not shown) [INDA, 3-isocyanodecanoic acid]	INDA, ATP, Rv0099, and Rv0100 yielded the expected product, INDA-S-Rv0100	–
NCCCC[C@H](N)C(=O)O [lysine]	–	LC-HRMS of INLP6; coupled assay with Rv0097/MmaE and Rv0098-0100 (MmaA): together with 2-decenoic acid, ATP, Gly, α-KG, Lys, and NADPH, generated INLP6
CCCCCCCC(CC(=O)O)NCC(=O)O (stereo not shown) [CADA, 3-[(carboxymethyl)amino]decanoic acid]	–	LC-HRMS of Py-AP after tetrazine click; turnover (MmaE): INDA was only detected from the assay with MmaE
CCCCCCCC=CC(=O)O [2-decenoic acid]	Rv0099-catalyzed reaction containing holo-Rv0100, 2-decenoic acid, and ATP	–
